Measured values as given in PubChem BioAssay (NCI).
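Results reflect a 48-hour exposure of cells in 96-well plates to compound at five concentrations. GI50 = concentration required for 50% inhibition of growth. TGI: total growth inhibition.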

Experiments:
Test in all cases: inhibition of tumour cell growth, NCI panel, 48 h
NCI-H23 lung = test system: NCI-H23 lung
NCI-H460 lung = test system: NCI-H460 lung
NCI-H522 lung = test system: NCI-H522 lung
NCI/ADR-RES ovarian = test system: NCI/ADR-RES ovarian
OVCAR-3 ovarian = test system: OVCAR-3 ovarian
OVCAR-4 ovarian = test system: OVCAR-4 ovarian
OVCAR-5 ovarian = test system: OVCAR-5 ovarian
OVCAR-8 ovarian = test system: OVCAR-8 ovarian
PC-3 prostate = test system: PC-3 prostate
RPMI-8226 leukemia = test system: RPMI-8226 leukemia
RXF 393 renal = test system: RXF 393 renal
SF-268 CNS = test system: SF-268 CNS
SF-295 CNS = test system: SF-295 CNS
SF-539 CNS = test system: SF-539 CNS
SK-MEL-2 melanoma = test system: SK-MEL-2 melanoma
SK-MEL-28 melanoma = test system: SK-MEL-28 melanoma
SK-MEL-5 melanoma = test system: SK-MEL-5 melanoma
SK-OV-3 ovarian = test system: SK-OV-3 ovarian
SN12C renal = test system: SN12C renal
SNB-19 CNS = test system: SNB-19 CNS
SNB-75 CNS = test system: SNB-75 CNS
SR leukemia = test system: SR leukemia
SW-620 colon = test system: SW-620 colon
T-47D breast = test system: T-47D breast
TK-10 renal = test system: TK-10 renal
U251 CNS = test system: U251 CNS
UACC-257 melanoma = test system: UACC-257 melanoma
UACC-62 melanoma = test system: UACC-62 melanoma
UO-31 renal = test system: UO-31 renal

CCS(=O)(=O)c1ccc(OC)c(Nc2ncc(-c3cccc(OC)c3)o2)c1
GI50 (NCI-H23 lung): 8.3 µM | TGI (NCI-H23 lung): > 25 µM | GI50 (NCI-H460 lung): 11.9 µM | TGI (NCI-H460 lung): > 25 µM | GI50 (NCI-H522 lung): 8.58 µM | TGI (NCI-H522 lung): 22.5 µM | GI50 (NCI/ADR-RES ovarian): 9.38 µM | TGI (NCI/ADR-RES ovarian): > 25 µM | GI50 (OVCAR-3 ovarian): 9.92 µM | TGI (OVCAR-3 ovarian): > 25 µM | GI50 (OVCAR-4 ovarian): 13.5 µM | TGI (OVCAR-4 ovarian): > 25 µM | GI50 (OVCAR-5 ovarian): 9.03 µM | TGI (OVCAR-5 ovarian): > 25 µM | GI50 (OVCAR-8 ovarian): 9.66 µM | TGI (OVCAR-8 ovarian): > 25 µM | GI50 (PC-3 prostate): 8.61 µM | TGI (PC-3 prostate): > 25 µM | GI50 (RPMI-8226 leukemia): > 16.5 µM | TGI (RPMI-8226 leukemia): > 25 µM | GI50 (RXF 393 renal): 5.83 µM | TGI (RXF 393 renal): 19.7 µM | GI50 (SF-268 CNS): 8.84 µM | TGI (SF-268 CNS): > 25 µM | GI50 (SF-295 CNS): 9.72 µM | TGI (SF-295 CNS): > 25 µM | GI50 (SF-539 CNS): 6.96 µM | TGI (SF-539 CNS): > 25 µM | GI50 (SK-MEL-2 melanoma): 13.2 µM | TGI (SK-MEL-2 melanoma): > 25 µM | GI50 (SK-MEL-28 melanoma): > 20.6 µM | TGI (SK-MEL-28 melanoma): > 25 µM | GI50 (SK-MEL-5 melanoma): 10 µM | TGI (SK-MEL-5 melanoma): > 25 µM | GI50 (SK-OV-3 ovarian): 9.92 µM | TGI (SK-OV-3 ovarian): > 25 µM | GI50 (SN12C renal): 8.3 µM | TGI (SN12C renal): > 25 µM | GI50 (SNB-19 CNS): 12 µM | TGI (SNB-19 CNS): > 25 µM | GI50 (SNB-75 CNS): 6.26 µM | TGI (SNB-75 CNS): > 18.2 µM | GI50 (SR leukemia): 9.33 µM | TGI (SR leukemia): 24.3 µM | GI50 (SW-620 colon): 9.09 µM | TGI (SW-620 colon): > 25 µM | GI50 (T-47D breast): 8.18 µM | TGI (T-47D breast): > 25 µM | GI50 (TK-10 renal): 6.5 µM | TGI (TK-10 renal): 18.6 µM | GI50 (U251 CNS): 8.09 µM | TGI (U251 CNS): > 25 µM | GI50 (UACC-257 melanoma): > 22.2 µM | TGI (UACC-257 melanoma): > 25 µM | GI50 (UACC-62 melanoma): 9.52 µM | TGI (UACC-62 melanoma): > 25 µM | GI50 (UO-31 renal): 3.4 µM | TGI (UO-31 renal): 13.8 µM
